Laboratory results from ChEMBL document CHEMBL1201862, “PubChem BioAssay data set” (2004).
Active and inactive are the calls of the source.

What was measured:
[1] = target: Dual specificity protein kinase CLK2 (Homo sapiens, UniProt P49760); assay type: functional
[2] = target: Serine/threonine-protein kinase 17A (Homo sapiens, UniProt Q9UEE5); assay type: functional
[3] = target: Mitogen-activated protein kinase kinase kinase kinase 2 (Homo sapiens, UniProt Q12851); assay type: functional;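 further: measured as one member of a kinome-wide kinase panel, with MAP4K2 as the panel entry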
Misshapen-like kinase 1 = Misshapen-like kinase 1 (Homo sapiens, UniProt Q8N4C8); assay type: functional;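 further: kinome panel screen with MINK as the panel member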
[4] = Luminescence Cell-Based Dose Response to Identify Activators of 5'UTR Stem-Loop Driven Prion Protein mRNA Translation in H4-C Neuroglioblastoma Cells. [Related pubchem assays: 1829 (Project Summary), 1814 (Primary HTS)]; assay type: functional
[5] = Luminescence Cell-Based Dose Response HTS to Identify Activators of Luciferase Translation or Activity in H4 […] Cells. [Related pubchem assays: 1829 (Project Summary), 1814 (Primary HTS)]; assay type: functional
H4 = test: Luminescence Cell-Based Dose Response HTS to Identify Activators of 5'UTR Stem-Loop Driven Prion Protein mRNA Translation in H4 Neuroglioblastoma Cells. [Related pubchem assays: 1829 (Project Summary), 1814 (Primary HTS)]; assay type: functional; details: Homo sapiens
[6] = Luminescence Cell-Based Dose Response to Identify Activators of Luciferase Translation or Activity in H4-C Neuroglioblastoma Cells. [Related pubchem assays: 1829 (Project Summary), 1814 (Primary HTS)]; assay type: functional
[7] = Luminescence Cell-Based Dose Confirmation to Identify Activators of 5'UTR Stem-Loop Driven Alpha-Synuclein mRNA Translation in H4 Neuroglioblastoma Cells. [Related pubchem assays: 1829 (Project Summary), 1814 (Primary HTS)]; assay type: functional
CHO-K1 = test: Counterscreen for antagonists of the orexin 1 receptor (OX1R; HCRTR1): Homogeneous time resolved fluorescence (HTRF)-based cell-based dose response assay to identify antagonists of the parental CHO-K1 cell line. [Related pubchem assays (depositor defined):AID434989, AID435008, AID463079, AID485270, AID492963, AID492964, AID492965, AID493232, AID504699, AID504701]; assay type: functional; details: Cricetulus griseus;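 further: potency for inhibition of ATP-stimulated IP1 production as antagonists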
[8] = Counterscreen for antagonists of the orexin 1 receptor (OX1R; HCRTR1): Fluorescence-based cell-based high throughput dose response assay to identify antagonists of the parental CHO cell line. [Related pubchem assays (depositor defined):AID434989, AID435008, AID463079, AID485270, AID492963, AID492964, AID492965, AID493232, AID504699, AID504701]; assay type: functional
[9] = target: T1, Orexin/Hypocretin receptor type 1 (Homo sapiens, UniProt O43613); test: Homogeneous Time Resolved Fluorescence (HTRF)-based cell-based high throughput dose response assay for antagonists of the orexin 1 receptor (OX1R; HCRTR1). [Related pubchem assays (depositor defined):AID434989, AID435008, AID463079, AID485270, AID492963, AID492964, AID492965, AID493232, AID504717, AID504718]; assay type: functional
T1 sequence (O43613 whole entry): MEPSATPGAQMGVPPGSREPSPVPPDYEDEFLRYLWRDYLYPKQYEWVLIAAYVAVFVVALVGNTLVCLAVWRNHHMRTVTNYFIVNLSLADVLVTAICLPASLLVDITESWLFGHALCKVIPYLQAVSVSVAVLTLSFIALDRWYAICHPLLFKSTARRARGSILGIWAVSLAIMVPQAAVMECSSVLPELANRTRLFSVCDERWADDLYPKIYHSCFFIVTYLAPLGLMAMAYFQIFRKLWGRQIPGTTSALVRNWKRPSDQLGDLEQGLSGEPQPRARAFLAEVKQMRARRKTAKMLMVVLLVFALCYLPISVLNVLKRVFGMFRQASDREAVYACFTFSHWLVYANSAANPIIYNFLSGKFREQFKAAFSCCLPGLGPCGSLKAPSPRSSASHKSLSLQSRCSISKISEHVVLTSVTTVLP

[10] = target: T1, Orexin/Hypocretin receptor type 1; test: Fluorescence-based cell-based high throughput dose response assay for antagonists of the orexin 1 receptor (OX1R; HCRTR1). [Related pubchem assays (depositor defined):AID434989, AID435008, AID463079, AID485270, AID492963, AID492964, AID492965, AID493232, AID504717, AID504718]; assay type: functional
Orexin receptor type 2 [11] = target: T2, Orexin receptor type 2 (Homo sapiens, UniProt O43614); test: Counterscreen assay for antagonists of the orexin 1 receptor (OX1R; HCRTR1): Fluorescence-based cell-based dose response assay for antagonists of the orexin 2 receptor (OX2R; HCRTR2), run by assay provider.; assay type: functional
Orexin receptor type 2 [12] = target: T2, Orexin receptor type 2; test: Counterscreen assay for antagonists of the orexin 1 receptor (OX1R; HCRTR1): Homogeneous Time Resolved Fluorescence (HTRF)-based cell-based dose response assay for antagonists of the orexin 2 receptor (OX2R; HCRTR2), run by assay provider.; assay type: functional
[13] = target: Protein kinase C delta type (Homo sapiens, UniProt Q05655); assay type: functional
[14] = target: Calcium/calmodulin-dependent protein kinase type II subunit gamma (Homo sapiens, UniProt Q13555); assay type: functional
[15] = target: Calcium/calmodulin-dependent protein kinase type II subunit delta (Homo sapiens, UniProt Q13557); assay type: functional
[16] = target: Receptor-type tyrosine-protein kinase FLT3 (Homo sapiens, UniProt P36888); assay type: functional;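 further: FLT3 was tested as one member of a kinome-wide kinase panel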
[17] = target: Calcium/calmodulin-dependent protein kinase type II subunit beta (Homo sapiens, UniProt Q13554); assay type: functional
Insulin-degrading enzyme [18] = target: T3, Insulin-degrading enzyme (Homo sapiens, UniProt P14735); test: activators of recombinant IDE enzyme, dose response, counter-screen for IDE activator project, biochemical, fluorescence polarization (AID 588681)
T3 sequence (P14735 whole entry): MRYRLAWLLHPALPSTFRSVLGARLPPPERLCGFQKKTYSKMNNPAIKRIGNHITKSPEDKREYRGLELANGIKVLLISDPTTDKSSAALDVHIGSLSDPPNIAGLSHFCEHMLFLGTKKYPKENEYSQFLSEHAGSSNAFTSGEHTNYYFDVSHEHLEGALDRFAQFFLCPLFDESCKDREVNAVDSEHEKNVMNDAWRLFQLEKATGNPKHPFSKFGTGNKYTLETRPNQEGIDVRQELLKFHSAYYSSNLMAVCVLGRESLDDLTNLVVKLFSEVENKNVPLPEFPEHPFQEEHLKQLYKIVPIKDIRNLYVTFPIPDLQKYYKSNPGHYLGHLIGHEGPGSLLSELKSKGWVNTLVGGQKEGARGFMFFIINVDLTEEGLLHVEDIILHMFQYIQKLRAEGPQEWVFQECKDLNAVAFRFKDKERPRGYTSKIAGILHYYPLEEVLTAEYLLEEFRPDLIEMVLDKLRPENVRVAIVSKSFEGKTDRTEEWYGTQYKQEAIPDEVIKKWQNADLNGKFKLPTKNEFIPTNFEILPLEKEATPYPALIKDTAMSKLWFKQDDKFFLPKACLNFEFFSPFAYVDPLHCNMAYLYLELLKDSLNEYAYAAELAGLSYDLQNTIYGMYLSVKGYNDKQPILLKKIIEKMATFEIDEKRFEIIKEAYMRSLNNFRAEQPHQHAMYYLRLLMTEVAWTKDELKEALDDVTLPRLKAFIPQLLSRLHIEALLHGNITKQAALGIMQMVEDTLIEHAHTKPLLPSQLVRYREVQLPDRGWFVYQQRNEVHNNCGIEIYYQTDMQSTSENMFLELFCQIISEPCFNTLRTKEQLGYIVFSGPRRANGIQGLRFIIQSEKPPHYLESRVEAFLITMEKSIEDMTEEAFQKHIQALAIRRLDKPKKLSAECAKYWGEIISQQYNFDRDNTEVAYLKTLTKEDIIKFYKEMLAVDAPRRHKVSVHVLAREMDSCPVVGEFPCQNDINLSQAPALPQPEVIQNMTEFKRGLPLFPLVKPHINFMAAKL

Insulin-degrading enzyme [19] = target: T3, Insulin-degrading enzyme; test: activators of endogenous IDE in HEK cells, dose response, cell-based, fluorescence polarization (AID 588439); assay type: functional
HEK293 [20] = test: HEK cell cytotoxicity by LDH release, dose response, cytotoxicity control for IDE activator project, fluorescence, HEK cells (AID 588440); assay type: functional, cell-based; details: Homo sapiens;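 further: cytotoxicity by LDH release measuring loss of membrane integrity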
HEK293 [21] = test: optical interference in Abeta FP readout, dose response, artefact control for IDE activator project, biochemical, fluorescence polarization (AID 588442); assay type: functional, cell-based; details: Homo sapiens
[22] = target: Serine/threonine-protein kinase pim-1 (Homo sapiens, UniProt P11309); assay type: functional
[23] = target: Cell division cycle 7-related protein kinase (Homo sapiens, UniProt O00311); assay type: functional;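 further: value obtained from a kinome-wide kinase panel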
[24] = target: Homeodomain-interacting protein kinase 2 (Homo sapiens, UniProt Q9H2X6); assay type: functional;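 further: measured within a kinome-wide kinase profiling panel, HIPK2 being one panel member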
[25] = target: Interleukin-1 receptor-associated kinase 4 (Homo sapiens, UniProt Q9NWZ3); assay type: functional
[26] = target: Cyclin-dependent kinase 7 (Homo sapiens, UniProt P50613); assay type: functional;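 further: value comes from a kinome-wide kinase profiling panel in which CDK7 is one member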
[27] = target: Glycogen synthase kinase-3 beta (Homo sapiens, UniProt P49841); assay type: functional;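 further: value comes from a broad kinome profiling panel, with GSK3B as the panel member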
[28] = target: Cyclin-dependent kinase 9 (Homo sapiens, UniProt P50750); assay type: functional;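 further: value from the CDK9 entry of a kinome-spanning kinase panel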
[29] = target: cAMP-dependent protein kinase catalytic subunit alpha (Homo sapiens, UniProt P17612); assay type: functional
[30] = THP-1 cell cytotoxicity, cytotoxicity control, set 6 (AID 602433); assay type: functional; details: Mycobacterium tuberculosis
Aurora kinase A = Aurora kinase A (Homo sapiens, UniProt O14965); assay type: functional;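 further: value from the Navigating the Kinome kinase panel profiling, panel entry STK6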
[31] = target: Vascular endothelial growth factor receptor 2 (Homo sapiens, UniProt P35968); assay type: functional
Aurora kinase B = Aurora kinase B (Homo sapiens, UniProt Q96GD4); assay type: functional
[32] = target: Cyclin-dependent kinase 19 (Homo sapiens, UniProt Q9BWU1); test: Navigating the Kinome. Panel member name: CDC2L6; assay type: functional
[33] = target: Sphingosine 1-phosphate receptor 2 (Homo sapiens, UniProt O95136); test: Late-stage fluorescence-based dose-response cell-based counterscreen assay to identify agonists of the Sphingosine 1-Phosphate Receptor 3 (S1P3): Sphingosine 1-Phosphate Receptor 2 (S1P2) agonist assay.; assay type: functional
[34] = target: T4, Sphingosine 1-phosphate receptor 4 (Homo sapiens, UniProt O95977); test: Late-stage fluorescence-based dose-response cell-based counterscreen assay to identify agonists of the Sphingosine 1-Phosphate Receptor 3 (S1P3): Sphingosine 1-Phosphate Receptor 4 (S1P4) agonist assay.; assay type: functional
T4 sequence (O95977 whole entry): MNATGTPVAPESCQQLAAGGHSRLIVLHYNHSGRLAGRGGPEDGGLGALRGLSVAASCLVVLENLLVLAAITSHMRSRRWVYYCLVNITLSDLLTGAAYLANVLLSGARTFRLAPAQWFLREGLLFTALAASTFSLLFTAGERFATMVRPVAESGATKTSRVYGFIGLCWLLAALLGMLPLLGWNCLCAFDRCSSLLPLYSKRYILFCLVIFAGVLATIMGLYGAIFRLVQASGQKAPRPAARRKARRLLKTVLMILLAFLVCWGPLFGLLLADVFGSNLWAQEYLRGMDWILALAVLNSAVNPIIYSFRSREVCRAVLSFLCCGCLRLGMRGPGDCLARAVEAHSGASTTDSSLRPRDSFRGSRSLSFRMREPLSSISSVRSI

T2 sequence (O43614 whole entry): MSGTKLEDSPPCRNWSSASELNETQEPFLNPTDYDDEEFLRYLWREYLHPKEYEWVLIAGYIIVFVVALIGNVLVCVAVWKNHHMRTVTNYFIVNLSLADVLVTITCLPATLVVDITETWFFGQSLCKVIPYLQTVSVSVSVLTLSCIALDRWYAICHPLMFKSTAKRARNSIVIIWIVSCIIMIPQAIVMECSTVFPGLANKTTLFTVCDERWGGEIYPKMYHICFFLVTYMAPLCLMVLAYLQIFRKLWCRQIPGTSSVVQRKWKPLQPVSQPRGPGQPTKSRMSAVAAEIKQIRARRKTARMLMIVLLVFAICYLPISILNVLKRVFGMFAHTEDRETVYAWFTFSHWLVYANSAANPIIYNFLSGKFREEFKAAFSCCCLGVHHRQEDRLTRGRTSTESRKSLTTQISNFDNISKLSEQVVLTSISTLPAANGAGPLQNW
Aurora kinase B, sequence (Q96GD4 whole entry): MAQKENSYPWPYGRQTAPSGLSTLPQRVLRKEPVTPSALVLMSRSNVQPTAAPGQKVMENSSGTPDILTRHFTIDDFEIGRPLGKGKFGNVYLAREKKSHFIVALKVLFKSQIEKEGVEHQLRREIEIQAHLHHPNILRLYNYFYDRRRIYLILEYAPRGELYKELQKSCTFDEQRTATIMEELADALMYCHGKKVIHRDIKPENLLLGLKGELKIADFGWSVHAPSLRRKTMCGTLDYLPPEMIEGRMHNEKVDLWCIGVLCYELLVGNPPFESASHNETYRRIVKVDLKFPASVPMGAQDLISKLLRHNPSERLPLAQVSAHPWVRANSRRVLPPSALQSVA
Cyclin-dependent kinase 9, sequence (P50750 whole entry): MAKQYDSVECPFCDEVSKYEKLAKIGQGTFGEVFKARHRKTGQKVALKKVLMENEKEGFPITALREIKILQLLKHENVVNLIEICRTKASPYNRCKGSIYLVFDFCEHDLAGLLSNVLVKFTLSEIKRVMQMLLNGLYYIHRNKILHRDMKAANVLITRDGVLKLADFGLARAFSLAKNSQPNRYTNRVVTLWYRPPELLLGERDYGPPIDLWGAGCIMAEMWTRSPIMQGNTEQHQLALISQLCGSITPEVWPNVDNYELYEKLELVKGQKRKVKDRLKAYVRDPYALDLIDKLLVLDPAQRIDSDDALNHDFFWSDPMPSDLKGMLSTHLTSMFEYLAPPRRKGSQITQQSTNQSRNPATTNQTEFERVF
Cell division cycle 7-related protein kinase, sequence (O00311 whole entry): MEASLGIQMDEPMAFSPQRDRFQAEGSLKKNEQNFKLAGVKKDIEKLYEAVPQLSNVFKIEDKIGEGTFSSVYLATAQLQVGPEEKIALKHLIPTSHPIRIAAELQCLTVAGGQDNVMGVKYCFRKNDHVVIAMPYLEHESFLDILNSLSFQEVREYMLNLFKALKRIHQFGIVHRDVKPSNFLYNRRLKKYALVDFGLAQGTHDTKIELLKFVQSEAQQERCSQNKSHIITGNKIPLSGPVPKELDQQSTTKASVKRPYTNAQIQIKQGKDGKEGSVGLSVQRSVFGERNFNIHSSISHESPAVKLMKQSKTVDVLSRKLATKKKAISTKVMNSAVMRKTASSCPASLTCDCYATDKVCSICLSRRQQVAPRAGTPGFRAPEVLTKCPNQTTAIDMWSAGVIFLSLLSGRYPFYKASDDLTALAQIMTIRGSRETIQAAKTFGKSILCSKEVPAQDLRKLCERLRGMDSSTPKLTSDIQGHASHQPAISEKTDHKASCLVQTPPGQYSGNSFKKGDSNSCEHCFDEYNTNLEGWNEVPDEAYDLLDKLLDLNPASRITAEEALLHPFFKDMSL
Serine/threonine-protein kinase 17A, sequence (Q9UEE5 whole entry): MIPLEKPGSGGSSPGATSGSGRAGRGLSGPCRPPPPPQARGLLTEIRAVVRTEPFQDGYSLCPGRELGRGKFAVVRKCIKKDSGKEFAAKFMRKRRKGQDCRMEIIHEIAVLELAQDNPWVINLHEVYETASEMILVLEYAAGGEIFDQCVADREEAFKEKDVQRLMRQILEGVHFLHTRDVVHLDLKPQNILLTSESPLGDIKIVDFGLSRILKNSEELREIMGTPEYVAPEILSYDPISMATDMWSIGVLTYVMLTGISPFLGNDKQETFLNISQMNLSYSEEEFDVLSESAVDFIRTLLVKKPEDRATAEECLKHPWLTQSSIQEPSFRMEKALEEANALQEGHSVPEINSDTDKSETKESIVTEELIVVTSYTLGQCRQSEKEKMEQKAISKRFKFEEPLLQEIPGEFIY
Protein kinase C delta type, sequence (Q05655 whole entry): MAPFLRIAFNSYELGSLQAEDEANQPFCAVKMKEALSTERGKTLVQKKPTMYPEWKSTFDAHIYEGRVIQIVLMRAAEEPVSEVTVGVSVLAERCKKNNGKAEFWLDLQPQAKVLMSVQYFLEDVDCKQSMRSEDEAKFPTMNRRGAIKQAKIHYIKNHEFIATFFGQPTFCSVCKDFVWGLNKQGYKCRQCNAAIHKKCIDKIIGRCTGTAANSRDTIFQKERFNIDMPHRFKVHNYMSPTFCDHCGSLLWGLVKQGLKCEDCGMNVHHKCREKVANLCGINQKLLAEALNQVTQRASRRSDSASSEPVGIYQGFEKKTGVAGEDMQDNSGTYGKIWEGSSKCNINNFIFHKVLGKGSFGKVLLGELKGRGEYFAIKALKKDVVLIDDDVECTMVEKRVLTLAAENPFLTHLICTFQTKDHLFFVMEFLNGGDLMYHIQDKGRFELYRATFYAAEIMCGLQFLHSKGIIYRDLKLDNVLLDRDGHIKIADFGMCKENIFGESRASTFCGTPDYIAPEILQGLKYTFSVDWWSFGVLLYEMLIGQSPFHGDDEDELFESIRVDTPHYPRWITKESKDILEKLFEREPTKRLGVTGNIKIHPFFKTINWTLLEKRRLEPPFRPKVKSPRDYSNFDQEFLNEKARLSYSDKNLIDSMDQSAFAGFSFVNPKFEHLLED
Misshapen-like kinase 1, sequence (Q8N4C8 whole entry): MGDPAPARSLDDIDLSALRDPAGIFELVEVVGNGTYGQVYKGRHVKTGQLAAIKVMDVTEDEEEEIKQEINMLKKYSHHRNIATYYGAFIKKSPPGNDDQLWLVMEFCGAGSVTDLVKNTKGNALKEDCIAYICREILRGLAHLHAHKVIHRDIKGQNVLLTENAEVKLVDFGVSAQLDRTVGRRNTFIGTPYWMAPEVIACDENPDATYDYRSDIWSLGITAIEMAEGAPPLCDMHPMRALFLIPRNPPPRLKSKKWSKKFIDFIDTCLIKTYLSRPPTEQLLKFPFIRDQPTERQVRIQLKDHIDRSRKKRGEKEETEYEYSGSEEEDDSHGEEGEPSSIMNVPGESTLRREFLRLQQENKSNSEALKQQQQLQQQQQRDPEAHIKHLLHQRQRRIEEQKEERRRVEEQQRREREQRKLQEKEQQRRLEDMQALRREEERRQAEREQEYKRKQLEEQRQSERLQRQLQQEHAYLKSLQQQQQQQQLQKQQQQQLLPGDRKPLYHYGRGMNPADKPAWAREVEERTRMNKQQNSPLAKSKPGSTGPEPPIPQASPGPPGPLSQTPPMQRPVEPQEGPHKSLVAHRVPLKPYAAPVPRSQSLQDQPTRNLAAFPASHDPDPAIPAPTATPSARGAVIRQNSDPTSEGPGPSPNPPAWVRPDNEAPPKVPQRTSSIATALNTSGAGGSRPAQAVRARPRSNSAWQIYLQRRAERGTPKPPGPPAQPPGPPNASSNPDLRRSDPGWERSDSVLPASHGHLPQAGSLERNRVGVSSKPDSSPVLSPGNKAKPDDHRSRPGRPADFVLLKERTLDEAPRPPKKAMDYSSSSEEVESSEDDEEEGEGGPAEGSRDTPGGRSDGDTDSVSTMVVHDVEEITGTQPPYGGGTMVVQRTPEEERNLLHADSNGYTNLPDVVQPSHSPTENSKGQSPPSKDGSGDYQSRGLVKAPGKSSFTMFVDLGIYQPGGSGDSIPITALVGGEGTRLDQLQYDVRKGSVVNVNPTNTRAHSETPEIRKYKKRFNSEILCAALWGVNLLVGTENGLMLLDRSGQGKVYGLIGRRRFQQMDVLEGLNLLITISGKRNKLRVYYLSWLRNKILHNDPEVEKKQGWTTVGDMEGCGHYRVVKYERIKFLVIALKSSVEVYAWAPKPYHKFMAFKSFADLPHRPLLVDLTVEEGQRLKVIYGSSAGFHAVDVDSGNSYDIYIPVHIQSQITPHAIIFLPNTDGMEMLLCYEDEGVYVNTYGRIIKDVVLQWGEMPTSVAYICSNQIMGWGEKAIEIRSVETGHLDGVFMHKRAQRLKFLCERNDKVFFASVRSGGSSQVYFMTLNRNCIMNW
Cyclin-dependent kinase 7, sequence (P50613 whole entry): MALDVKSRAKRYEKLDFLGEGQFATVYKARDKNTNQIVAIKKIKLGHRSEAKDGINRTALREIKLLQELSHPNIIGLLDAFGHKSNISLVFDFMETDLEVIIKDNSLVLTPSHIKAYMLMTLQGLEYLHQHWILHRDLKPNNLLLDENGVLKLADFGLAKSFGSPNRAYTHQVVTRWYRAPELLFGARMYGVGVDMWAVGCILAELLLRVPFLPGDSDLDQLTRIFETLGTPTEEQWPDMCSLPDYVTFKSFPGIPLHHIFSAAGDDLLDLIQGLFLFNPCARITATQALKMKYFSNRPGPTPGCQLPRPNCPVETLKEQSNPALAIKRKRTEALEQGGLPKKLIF
Serine/threonine-protein kinase pim-1, sequence (P11309 whole entry): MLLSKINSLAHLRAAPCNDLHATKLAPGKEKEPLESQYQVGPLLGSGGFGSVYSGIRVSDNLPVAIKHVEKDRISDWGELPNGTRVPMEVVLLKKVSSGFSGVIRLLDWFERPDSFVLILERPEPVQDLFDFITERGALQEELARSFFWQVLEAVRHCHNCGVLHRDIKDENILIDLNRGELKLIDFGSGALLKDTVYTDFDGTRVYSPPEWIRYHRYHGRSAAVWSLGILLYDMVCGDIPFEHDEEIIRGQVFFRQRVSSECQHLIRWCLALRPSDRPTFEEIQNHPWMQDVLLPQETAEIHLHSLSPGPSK

Cc1n[nH]c2c1C(c1ccccc1F)C(C#N)=C(N)O2 (centres undefined)
Ki [1]: 7.94 µM (active)
Ki [2]: 2.51 µM (active)
Ki [3]: 5.01 µM (active)
Ki (Misshapen-like kinase 1): 5.01 µM (active)

O=C(Nc1ccc2sc3ccccc3c(=O)c2c1)c1ccccc1Cl
EC50 [4]: 0.3 µM (active)
EC50 [5]: 0.297 µM (active)
EC50 (H4): 0.199 µM (active)
EC50 [6]: 0.454 µM (active)
EC50 [7]: 0.232 µM (active)
IC50 (CHO-K1): > 66.2 µM (inactive)
IC50 [8]: > 49.8 µM (inactive)
IC50 [9]: 3.26 µM (active)
IC50 [10]: > 5.53 µM (active)
IC50 (Orexin receptor type 2 [11]): > 88.8 µM (inactive)
IC50 (Orexin receptor type 2 [12]): 1.54 µM (active)

CCNc1nc(C)c(C=CC(C)(C)c2ccc(C(F)(F)F)cc2)c(NCC)n1
Ki [13]: 7.94 µM (active)
Ki [14]: 1.58 µM (active)
Ki [15]: 2 µM (active)
Ki [16]: 1.26 µM (active)
Ki [17]: 2 µM (active)

COc1ccc(CCNC(=O)COC(=O)C2CC2C)cc1OC (centres undefined)
EC50 (Insulin-degrading enzyme [18]): > 54.7 µM (inactive)
EC50 (Insulin-degrading enzyme [19]): > 54.7 µM (inactive)
IC50 (HEK293 [20]): > 89.2 µM (inactive)
EC50 (HEK293 [21]): > 55.9 µM (inactive)

CC(C)(CO)CCCNc1cc(-c2c[nH]c3ncccc23)cc(Cl)n1
Ki [22]: 0.398 µM (active)
Ki [23]: 0.000631 µM (active)
Ki [24]: 0.00794 µM (active)
Ki [25]: 1.58 µM (active)
Ki [26]: 0.0794 µM (active)
Ki [27]: 0.0316 µM (active)
Ki [28]: 0.158 µM (active)
Ki [29]: 0.0316 µM (active)

O=C(c1ccc(CNc2c(N3CCOCC3)c(=O)c2=O)cc1)N1CCC(c2ccccc2)CC1
CC50 [30]: > 100 µM (active)

O=C(Nc1cccc(-c2nn3ccccc3c2-c2ccnc(Nc3ccc4c(c3)CNCC4)n2)c1)c1c(F)cccc1F
Ki (Aurora kinase A): 0.2 µM (active)
Ki [31]: 0.0126 µM (active)
Ki (Aurora kinase B): 0.00501 µM (active)
Ki [32]: 0.02 µM (active)

O=C(c1cc(C2CC2)on1)N(C1CCCCC1)C1CCOCC1
EC50 [33]: > 50 µM (inactive)
EC50 [34]: > 50 µM (inactive)
